From PMC4904246 (Journal of Medicinal Chemistry, 2016)
≈ marks a conversion by molar mass, not a printed value.

Assays:
[1] = kinetic aqueous solubility by nephelometry; type: physicochemical; conditions: pH 6.5 phosphate buffer, pH 6.5
[2] = in vitro metabolism, human liver microsomes; type: in vitro ADME; conditions: human, pooled human liver microsomes
[3] = plasma protein binding by ultracentrifugation, mouse plasma; type: in vitro ADME; conditions: mouse plasma, ultracentrifugation
[4] = plasma protein binding by ultracentrifugation, human plasma; type: in vitro ADME
PvDHODH = molecular target: T1, PvDHODH (Plasmodium vivax, UniProt A5K1N1); conditions: PvDHODH IC50 higher than PfDHODH IC50
T1 sequence (A5K1N1 160-572): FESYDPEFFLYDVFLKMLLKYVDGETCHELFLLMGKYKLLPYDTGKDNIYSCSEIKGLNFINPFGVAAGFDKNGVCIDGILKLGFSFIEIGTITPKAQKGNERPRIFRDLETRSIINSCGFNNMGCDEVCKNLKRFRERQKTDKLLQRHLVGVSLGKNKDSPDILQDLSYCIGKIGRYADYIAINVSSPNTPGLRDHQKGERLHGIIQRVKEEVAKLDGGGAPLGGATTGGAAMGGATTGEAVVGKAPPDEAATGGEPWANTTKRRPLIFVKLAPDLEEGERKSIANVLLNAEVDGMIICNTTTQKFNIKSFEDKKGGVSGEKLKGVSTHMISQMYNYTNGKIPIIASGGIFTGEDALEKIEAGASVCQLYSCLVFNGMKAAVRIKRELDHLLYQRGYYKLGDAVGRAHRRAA

dog DHODH = dog DHODH (Canis lupus familiaris, UniProt A0A8I3MWX2); experiment: biochemical
[5] = test system: P. falciparum Pf3D7_0087/N9 parasites
[6] = plasma protein binding by ultracentrifugation, rat plasma; type: in vitro ADME

Chain of dog DHODH (A0A8I3MWX2 1-406): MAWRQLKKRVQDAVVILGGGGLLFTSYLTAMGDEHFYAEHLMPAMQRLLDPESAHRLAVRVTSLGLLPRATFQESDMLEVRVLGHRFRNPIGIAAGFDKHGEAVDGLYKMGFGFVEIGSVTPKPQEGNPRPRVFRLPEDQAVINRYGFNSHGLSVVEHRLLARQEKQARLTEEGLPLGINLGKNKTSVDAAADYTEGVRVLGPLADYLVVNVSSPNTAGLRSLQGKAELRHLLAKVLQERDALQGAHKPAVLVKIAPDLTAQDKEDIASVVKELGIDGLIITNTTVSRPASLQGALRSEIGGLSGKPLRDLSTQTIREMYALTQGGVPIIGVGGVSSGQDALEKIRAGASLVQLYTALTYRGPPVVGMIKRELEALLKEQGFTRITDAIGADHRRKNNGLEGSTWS

With `Cc1cc(NC2CCc3cc(F)c(C(F)(F)F)cc3C2)n2nc(C(C)(F)F)nc2n1` (stereo not drawn) [Compound 20, 2-(1,1-Difluoroethyl)-N-(6-fluoro-7-(trifluoromethyl)-1,2,3,4-tetrahydronaphthalen-2-yl)-5-methyl-[1,2,4]triazolo[1,5-a]pyrimidin-7-amine] as the compound, how does the solubility kinetic at 30 min [1] read?
The solubility kinetic at 30 min was 3.1 to 6.3 µg/mL (≈ 7.22 to 14.7 µM).

And the CLint scaled at 1 μM [2]?
The CLint scaled at 1 μM was < 5.8 mL/min/kg.

With `Cc1cc(NC2CCc3cc(C(F)(F)F)c(F)cc3C2)n2nc(C(C)(F)F)nc2n1` (stereo not drawn) [Compound 21, 2-(1,1-Difluoroethyl)-N-(7-fluoro-6-(trifluoromethyl)-1,2,3,4-tetrahydro-naphthalen-2-yl)-5-methyl-[1,2,4]triazolo[1,5-a]pyrimidin-7-amine] as the compound, how does the solubility kinetic at 30 min [1] read?
The solubility kinetic at 30 min was 1.6 to 3.1 µg/mL (≈ 3.73 to 7.22 µM).

And the CLint scaled at 1 μM [2]?
Its CLint scaled at 1 μM is < 5.8 mL/min/kg.

For `Cc1cc(NC2CCc3ccc(Cl)cc3C2)n2nc(C(F)(F)F)nc2n1` (stereo not drawn) [Compound 24, N-(7-Chloro-1,2,3,4-tetrahydronaphthalen-2-yl)-5-methyl-2-(trifluoromethyl)-[1,2,4]triazolo[1,5-a]pyrimidin-7-amine], which solubility kinetic at 30 min [1] is on record?
The solubility kinetic at 30 min was 1.6 to 3.1 µg/mL (≈ 4.19 to 8.12 µM).

And the CLint scaled at 1 μM [2]?
The CLint scaled at 1 μM was 7.4 mL/min/kg.

Which solubility kinetic at 30 min [1] does the source give for `Cc1cc(NC2Cc3ccccc3C2)n2nc(C(C)(F)F)nc2n1` [Compound 26, 2-(1,1-Difluoroethyl)-N-(2,3-dihydro-1H-inden-2-yl)-5-methyl[1,2,4]triazolo[1,5-a]pyrim-idin-7-amine] here?
Its solubility kinetic at 30 min is 25 to 50 µg/mL (≈ 75.9 to 152 µM).

And the CLint scaled at 1 μM [2]?
Its CLint scaled at 1 μM is 20 mL/min/kg.

Which solubility kinetic at 30 min [1] does the source give for `Cc1cc(NC2Cc3ccc(Cl)cc3C2)n2nc(C(C)(F)F)nc2n1` (stereo not drawn) [Compound 28, N-(5-Chloro-2,3-dihydro-1H-inden-2-yl)-2-(1,1-difluoroethyl)-5-methyl-[1,2,4]triazolo[1,5-a]pyrimidin-7-amine] here?
The solubility kinetic at 30 min was 6.3 to 12.5 µg/mL (≈ 17.3 to 34.4 µM).

And the CLint scaled at 1 μM [2]?
Its CLint scaled at 1 μM is 8.2 mL/min/kg.

With `Cc1cc(NC2Cc3c(C)ccc(C)c3C2)n2nc(C(C)(F)F)nc2n1` [Compound 32, N-(4,7-Dimethyl-2,3-dihydro-1H-inden-2-yl)-2-(1,1-difluoroethyl)-5-methyl-[1,2,4]triazolo[1,5-a]pyrimidin-7-amine] as the compound, how does the solubility kinetic at 30 min [1] read?
Its solubility kinetic at 30 min is 6.3 to 12.5 µg/mL (≈ 17.6 to 35 µM).

And the CLint scaled at 1 μM [2]?
Its CLint scaled at 1 μM is 138 mL/min/kg.

Which solubility kinetic at 30 min [1] does the source give for `Cc1cc(NC2Cc3c(F)ccc(F)c3C2)n2nc(C(C)(F)F)nc2n1` [Compound 33, N-(4,7-Difluoro-2,3-dihydro-1H-inden-2-yl)-2-(1,1-difluoroethyl)-5-methyl-[1,2,4]triazolo[1,5-a]pyrimidin-7-amine] here?
The solubility kinetic at 30 min was 6.3 to 12.5 µg/mL (≈ 17.2 to 34.2 µM).

What about the CLint scaled at 1 μM [2] of the same compound?
The CLint scaled at 1 μM was 27 mL/min/kg.

With `Cc1cc(NC2Cc3cccc(F)c3C2)n2nc(C(C)(F)F)nc2n1` (stereo not drawn) [Compound 34, 2-(1,1-Difluoroethyl)-N-(4-fluoro-2,3-dihydro-1H-inden-2-yl)-5-methyl-[1,2,4]triazolo[1,5-a]pyrimidin-7-amine] as the compound, how does the solubility kinetic at 30 min [1] read?
Its solubility kinetic at 30 min is 12.5 to 25 µg/mL (≈ 36 to 72 µM).

And the CLint scaled at 1 μM [2]?
Its CLint scaled at 1 μM is 9.1 mL/min/kg.

Which “PPB mouse (% bound)” value [3] does the source give for `Cc1cc(NC2Cc3cc(F)c(F)cc3C2)n2nc(C(C)(F)F)nc2n1` [Compound 35, N-(5,6-Difluoro-2,3-dihydro-1H-inden-2-yl)-2-(1,1-difluoroethyl)-5-methyl-[1,2,4]triazolo[1,5-a]pyrimidin-7-amine] here?
The value was 95.3 % bound.

And the “PPB human (% bound)” value [4]?
The value was 93.4 % bound.

And the “difference of IC50 P. vivax DHODH versus PfDHODH” value (PvDHODH)?
The value was 7 fold.

And the solubility kinetic at 30 min [1]?
Its solubility kinetic at 30 min is 6.3 to 12.5 µg/mL (≈ 17.2 to 34.2 µM).

What about the IC50 (dog DHODH) of the same compound?
The IC50 was > 100 µM.

What about the ED90 ([5]; oral QD for 4 days) of the same compound?
Its ED90 is > 30 mg/kg.

And the AUCED90 ([5]; total blood AUC at the ED90, Day 1 pharmacokinetic data, QD, only two dose levels)?
The AUCED90 was “∼137 μM·h/day”.

And the CLint scaled at 1 μM [2]?
The CLint scaled at 1 μM was < 5.8 mL/min/kg.

And the “PPB rat (% bound)” value [6]?
Its value is 94.2 % bound.

For `Cc1cc(NC2Cc3cccc(C(F)(F)F)c3C2)n2nc(C(C)(F)F)nc2n1` (stereo not drawn) [Compound 36, 2-(1,1-Difluoroethyl)-5-methyl-N-(4-(trifluoromethyl)-2,3-dihydro-1H-inden-2-yl)-[1,2,4]triazolo[1,5-a]pyrimidin-7-amine], which solubility kinetic at 30 min [1] is on record?
The solubility kinetic at 30 min was 6.3 to 12.5 µg/mL (≈ 15.9 to 31.5 µM).

What about the CLint scaled at 1 μM [2] of the same compound?
Its CLint scaled at 1 μM is 25 mL/min/kg.
